Laboratory results as given in US20110081428A1, “Use of thioflavin-like compounds to increase life span and/or health span” (priority 2009, published 2011).

Tests used:
HSF-1 = experiment: Western blot HSF-1; assay type: in vivo, Caenorhabditis elegans; conditions: ThT treatment
Method: (§1) Peptide corresponding to amino acids 110-145 ([…]; SEQ ID NO:1) of HSP-16.2 was used to commercially synthesize antiserum (Invitrogen). Briefly, KLH-peptide was emulsified by mixing with an equal volume of Freund's adjuvant and injected into three subcutaneous dorsal sites for a total of 0.1 mg of peptide for immunization. The animals (rabbits) were bled, the blood allowed to clot and the serum collected by centrifugation. Monoclonal HSP-70 and Polyclonal HSF-1 primary antibodies were from stressgen (N27F3-4 and SPA-901, respectively).
(§2) Worms were transferred to siliconized eppendorf tubes, washed once in S-basal and frozen in liquid N2. Standard SDS-PAGE was performed using (4-12%) NOVEX gels and IVIES running buffer. Following transfer PVDF (BioRad) membranes were incubated with antisera (1:10000) or primary antibodies (1:1000) diluted in blocking buffer and then with secondary, goat anti-rabbit IgG antibody/horseradish peroxidase conjugate (Pierce), diluted 1:25000. Detection was undertaken with chemiluminescent reagents (SuperSignal, Pierce) and standard autoradiography.

ZZ26 unc-63(x26)I = conditions: 50 μM levamisole, after 3 days of treatment
Method: Scoring for paralysis was initiated 2 and 8 days after temperature upshift for CL4176 and AM140, respectively. […] For sensitivity to EtOH or levamisole resistance, CW152 gas-1 (fc21) X and ZZ26 unc-63(x26)I worms were picked into 0.4 M EtOH or 50 μM levamisole, respectively, equilibrated for 5 min, and scored for paralysis as described above. Treated and untreated worms were compared with an unpaired t-test (implemented in Prism 4, Graphpad™ Software, Inc., San Diego, Calif., USA).

[1] = test system: N2 worms raised on 1×10^9 cfu/ml; experiment: Lifespan under dietary restriction (diluted bacterial food); conditions: 20° C.
Method: Plates were prepared as described (Chen, D., Thomas, E. L. & Kapahi, P. HIF-1 modulates dietary restriction-mediated lifespan extension via IRE-1 in Caenorhabditis elegans. PLoS Genet. 5, e1000486, (2009), but bacterial concentration was adjusted to 1.0×10^12 cfu/ml and diluted to achieve bacterial concentration of 1.0×10^9 cfu/ml. Diluted bacterial cultures were spotted onto DR agar plates, which were modified from the standard nematode growth media (NGM) plates by excluding peptone and increasing agar from 1.7% to 2.0%. Carbenicillin ([…]) was added to the agar plates to further prevent bacterial growth. Synchronized L4 larvae grown under standard lab conditions (NGM plates with OP50 food, 20° C.) were transferred to fresh DR agar plates in presence or absence of 1, 10, 25, 50 and 100 μM ThT and lifespans scored as described above.

[2] = test system: UNC-54 (paramyosin) in unc-54(e1157)I; experiment: Paramyosin immunolocalization / sarcomere structure; assay type: in vivo, Caenorhabditis elegans; conditions: 50 μM ThT, 24 h at 25° C.
Method: (§3) For fluorescent microscopy, TJ356 zIs356 IV [daf-16::daf-16-gfp+rol-6] or CF2189 Is001(skn-1::gfp+rol-6) were paralyzed with 1 mM levamisole mounted on 1% agarose pads and imaged using Olympus BX51 (60× objective) and HCImage software (Hamamatsu). For immunofluorescence, N2, […], CB1157 unc-54(e1157) or CL4176 dvIs27 [myo-3::Aβ(3 to 42)-let 3′UTR(pAF29); pRF4 (rol-6(su1006))] worms were treated for 24-36 h with or without 50 μM ThT at 25° C. After this period the worms were collected, rinsed, and fixed in 4% paraformaldehyde overnight. […] Paramyosin and perlecans were detected with primary monoclonal antibodies 5-23 and MH3 (developed by Henry Epstein and Robert H. Waterston and obtained from the Developmental Studies Hybridoma Bank developed under the auspices of the NICHD and maintained by The University of Iowa, Department of Biology, Iowa City, Iowa 52242) and AlexaFluor 633 goat anti-mouse (Molecular Probes) as secondary antibody. Soluble oligomers and Aβ peptide were detected with anti polyclonal All (Invitrogen) and 6E10 monoclonal (Covance) primary antibodies, respectively, with AlexaFluor 568 goat anti-rabbit and AlexaFluor 488 goat anti-mouse (Molecular Probes) as secondary antibodies. Images were processed and quantified by using Image Analyst MK II (Novato, Calif.).

PS3551 [hsf-1(sy441)I] = experiment: Lifespan assay, hsf-1 mutant; assay type: in vivo, Caenorhabditis elegans; conditions: 50 μM ThT, 100 μM curcumin
Method: Lifespan assays were performed as described previously. (McColl, G. et al. Pharmacogenetic analysis of lithium-induced delayed aging in Caenorhabditis elegans. J Biol Chem 283, 350-357 (2008). Briefly, the nematode growth media (NGM) plates were prepared under sterile conditions. 100 μL of concentrated stocks of each of the compounds used in this study were added onto a previously prepared NGM small plate (3 mL volume) immediately spread over the surface of the plate. The final concentrations quoted in the text assume an even distribution of compound throughout the 3 ml plate. The plates were then placed in a laminar flow hood at room temperature for 30 min and then 60 μL of a concentrated suspension of E. coli OP50 was spotted to form a circular lawn on the center of each plate. Thirty late L4 larvae growing at 20° C. were transferred to fresh NGM plates with FUdR (75 μM) in presence or absence of the specified compounds and incubated at 20° C. The first day of adulthood is Day 3 in survival curves. […] ThT concentration should be optimized depending on batch and purity and stability of the compound.
Animals were scored as alive, dead or lost every other day. […] Animals that died from causes other than ageing, such as sticking to the plate walls, internal hatching of eggs (“bagging”) or gonadal extrusion were censored as were lost worms. […]

[3] = test system: UNC-52 (perlecan) in HE250; experiment: Perlecan immunolocalization; assay type: in vivo, Caenorhabditis elegans; conditions: HE250, 50 μM ThT, 24 h at 25° C.
Method: as §3

HSP-70 = experiment: Western blot HSP-70; assay type: in vivo, Caenorhabditis elegans; conditions: 50 μM ThT, 4 and 7 days of treatment
Method: as §1, §2

HSP-16.2 = experiment: Western blot HSP-16.2; assay type: in vivo, Caenorhabditis elegans; conditions: 50 μM ThT, 100 μM curcumin, 4 and 7 days of treatment
Method: as §1, §2

Cc1ccc2c(c1)sc(-c1ccc(N(C)C)cc1)[n+]2C.[Cl-] [ThT, 4-(3,6-dimethyl-1,3-benzothiazol-3-ium-2-yl)-N,N-dimethylaniline chloride]
HSF-1 protein levels (HSF-1): slight increase | levamisole resistance (ZZ26 unc-63(x26)I): increases levimisole resistance | lifespan in bacterial dilution DR model ([1]; 50 μM ThT): detrimental to lifespan | increase in lifespan in bacterial dilution DR model ([1]; 1 and 10 μM ThT): 24% | muscle sarcomere structure [2]: prevented the disruption of the muscle sarcomeres | lifespan of hsf-1(sy441) mutant (PS3551 [hsf-1(sy441)I]): does not increase lifespan | perlecan organization [3]: restored perlecan organization | HSP-70 protein levels (HSP-70): up-regulated | HSP-16.2 protein levels (HSP-16.2): up-regulated
